From patent US5602176A, “Phenyl carbamate” (priority 1987, dated 1997)
Where two headings read alike, the source gives them in different places.

What was measured:
[1] = biological target: T1, AChE preparations of different rat brain regions (Rattus norvegicus, UniProt P37136); assay: Acetylcholinesterase inhibition in different rat brain regions (in vitro, Ellman); format: biochemical; conditions: table 1
T1 construct: Rat brain tissue is homogenized in cold phosphate buffer pH 7.3; from tissue; host or cells: rat brain (cortex, hippocampus, striatum), supernatant of Triton X-100 homogenate
Protocol: Acetylcholinesterase inhibition in different rat brain regions
AChE preparations of different rat brain regions (Cortex, hippocampus and striatum) are used in this test and the IC50 (inhibitory concentrations in μM) are determined. The enzyme preparations are preincubated with the inhibitor 15 minutes before the determination.
(§1) The AChE activity is measured according to the method described by Ellman (Arch. Biochem. Biophys. 82, 70, 1959). Rat brain tissue is homogenized in cold phosphate buffer pH 7.3 (0.25 mM) containing 0.1% of Triton X-100. After centrifugation aliquots of the clear supernatant is used as enzyme source. The enzyme is preincubated with different concentrations of the inhibitor. After different times, substrate (acetylthiocholinjodide 0.5 mM) is added and the remaining activity determined.

AChE [2] = biological target: T2, AChE (Rattus norvegicus, UniProt P37136); assay: in vivo; set-up: Rat brain tissue is homogenized in cold phosphate buffer pH 7.3; from tissue; host or cells: rat brain (cortex, hippocampus, striatum), supernatant of Triton X-100 homogenate; conditions: for ED50: rat, po, 0.5 h
Protocol: as §1
Acetylcholinesterase inhibition ex vivo in different rat brain regions
The method is as disclosed above.

[3] = In vitro skin diffusion test (penetration through the skin); format: in vitro ADME; conditions: rat skin; listed as compound A
Description: The penetration through the skin of the compounds for administration according to the invention may be observed in standard in vitro or in vivo tests.
One in vitro test is the well known diffusion test which may be effected according to the principles set out in GB 2098865 A and by T. J. Franz in J. Invest. Dermatol. (1975) 64, 194-195. Solutions containing the active agent in unlabelled or radioactively labelled form are applied to one side of isolated pieces of intact human skin or hairless rat skin about 2 cm^2 in area. The other side of the skin is in contact with physiological saline. The amount of active agent in the saline is measured in conventional manner, e.g. by HPLC or spectrophotometric techniques, or by determining the radioactivity.
In this test using rat skin the following penetration rates, for example, have been found: […]

[4] = system: dopamine metabolism in striatum; assay: Influence on dopamine metabolism; format: in vivo, rat
Protocol: Influence on dopamine metabolism
Male OFA rats (150-200 g) were used both for acute and subchronic experiments. The animals are maintained under 12 hour periods of light and dark. The animals are sacrificed always between 11.00 and 13.00 h. The brains are excised immediately, dissected on ice according to the method of GLOWINSKI and IVERSEN, J. Neurochem. 13, 655 (1966), frozen on dry ice and the tissue samples stored at -80° C. until analysis.
Dopamine and its metabolites DOPAC (3,4-dihydroxyphenylacetic acid) and HVA (homovanillic acid) are determined in brain tissue extracts which are obtained by homogenisation of the stored brain tissue samples in 0.1N HCl containing 0.05 mM ascorbic acid and subsequent centrifugation. Striatal and cortical tissues are used.
The determination of the metabolites is performed using either the gas chromatography/mass fragmentography (GCMS) technique as described by KAROUM et al., J. Neurochem. 25, 653 (1975) and CATABENI et al., Science 178, 166 (1972) or the fluorometric method as described by […] and MAITRE, Analyt. Biochem. 51, 474 (1973). For the GCMS method, tissue extracts are prepared by adding known amounts of deuterated monoamines and their respective metabolites as internal standards.

AChE [5] = biological target: T2, AChE; assay: in vivo; format: in vivo; set-up: from tissue; host or cells: male OFA rats: cortex, hippocampus, striatum, pons/medulla, heart, blood; conditions: for remaining activity at 10 µmol/kg: rat, po
[6] = six hours after 10 μmol/kg p.o.
[7] = Subcutaneous 8 μmol/kg, 0.5 hours after treatment
[8] = Subcutaneous 8 μmol/kg, 6 hours after treatment
[9] = Subcutaneous 8 μmol/kg, 24 hours after treatment
[10] = Transdermal 30 μmol/kg, 0.5 hours after treatment
[11] = Transdermal 30 μmol/kg, 6 hours after treatment
[12] = Transdermal 30 μmol/kg, 24 hours after treatment

T2 sequence (P37136 32-614): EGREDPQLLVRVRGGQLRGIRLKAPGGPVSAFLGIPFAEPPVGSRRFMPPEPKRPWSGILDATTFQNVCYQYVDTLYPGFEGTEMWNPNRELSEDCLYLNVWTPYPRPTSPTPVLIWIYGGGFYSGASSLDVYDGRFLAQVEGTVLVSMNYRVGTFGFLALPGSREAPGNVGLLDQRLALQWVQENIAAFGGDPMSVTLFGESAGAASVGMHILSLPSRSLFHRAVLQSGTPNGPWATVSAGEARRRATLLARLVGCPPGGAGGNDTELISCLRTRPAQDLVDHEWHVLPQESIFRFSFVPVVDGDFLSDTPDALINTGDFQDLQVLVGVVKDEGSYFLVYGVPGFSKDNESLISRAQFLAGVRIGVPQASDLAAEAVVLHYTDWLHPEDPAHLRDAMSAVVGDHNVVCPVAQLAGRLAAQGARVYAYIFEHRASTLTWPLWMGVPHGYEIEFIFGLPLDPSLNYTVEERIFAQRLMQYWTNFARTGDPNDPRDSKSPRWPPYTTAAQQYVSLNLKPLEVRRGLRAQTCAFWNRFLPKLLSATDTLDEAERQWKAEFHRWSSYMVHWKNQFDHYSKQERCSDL
T1 sequence (P37136 32-614): as above

In the case of CCN(C)C(=O)Oc1cccc([C@H](C)N(C)C)c1 [Compound A, (S)-N-ethyl-3-[(1-dimethylamino)ethyl]-N-methyl-phenyl-carbamate], the “AChE inhibition in vitro, comparison in words” value [1] is reported as “slightly superior than that with racemate C”, the ED50 (AChE [2]; read-out: IC50 ex vivo AChE, cortex) is reported as 2 µmol/kg and the ED50 (AChE [2]; read-out: IC50 ex vivo AChE, hippocampus) is reported as 4 µmol/kg. The ED50 (AChE [2]; read-out: IC50 ex vivo AChE, striatum) was 7 µmol/kg, the “AChE inhibition ex vivo, cortex” value (AChE [2]; [6]) was 39% and the “AChE inhibition ex vivo, hippocampus” value (AChE [2]; [6]) was 44%. The “AChE inhibition ex vivo, striatum” value (AChE [2]; [6]) was 16%, the penetration rate [3] was 23.6±14.9% and the “dopamine metabolism in striatum” value ([4]; following administration) was “increased”. The “enhancing the striatal dopamine metabolite concentration, comparison” value ([4]; rat, in vivo) was “more active than compound B and racemate C”, the “AChE activity in % of controls ± SD, Blood” value (AChE [5]; [7]) was 17.4 ± 4.1 % of controls and the “AChE activity in % of controls ± SD, Cortex” value (AChE [5]; [7]) was 16.8 ± 2.0 % of controls. For the same molecule, the “AChE activity in % of controls ± SD, Heart” value (AChE [5]; [7]) was 33.3 ± 5.6 % of controls, the “AChE activity in % of controls ± SD, Hippocampus” value (AChE [5]; [7]) was 18.3 ± 3.1 % of controls and the “AChE activity in % of controls ± SD, Pons/Medulla” value (AChE [5]; [7]) was 20.9 ± 2.9 % of controls. For the same molecule, the “AChE activity in % of controls ± SD, Striatum” value (AChE [5]; [7]) was 28.2 ± 12.2 % of controls, the “AChE activity in % of controls ± SD, Blood” value (AChE [5]; [8]) was 79.5 ± 8.2 % of controls and the “AChE activity in % of controls ± SD, Cortex” value (AChE [5]; [8]) was 85.1 ± 1.6 % of controls. For the same molecule, the “AChE activity in % of controls ± SD, Heart” value (AChE [5]; [8]) was 51.0 ± 17.9 % of controls, the “AChE activity in % of controls ± SD, Hippocampus” value (AChE [5]; [8]) was 81.4 ± 7.6 % of controls and the “AChE activity in % of controls ± SD, Pons/Medulla” value (AChE [5]; [8]) was 87.1 ± 4.1 % of controls. The “AChE activity in % of controls ± SD, Striatum” value (AChE [5]; [8]) was 82.9 ± 2.8 % of controls, the “AChE activity in % of controls ± SD, Blood” value (AChE [5]; [9]) was 105.7 ± 16.8 % of controls and the “AChE activity in % of controls ± SD, Cortex” value (AChE [5]; [9]) was 93.8 ± 5.9 % of controls. The “AChE activity in % of controls ± SD, Heart” value (AChE [5]; [9]) was 65.7 ± 21.2 % of controls, the “AChE activity in % of controls ± SD, Hippocampus” value (AChE [5]; [9]) was 99.9 ± 9.9 % of controls and the “AChE activity in % of controls ± SD, Pons/Medulla” value (AChE [5]; [9]) was 98.7 ± 6.0 % of controls. For the same molecule, the “AChE activity in % of controls ± SD, Striatum” value (AChE [5]; [9]) was 91.0 ± 2.3 % of controls, the “AChE activity in % of controls ± SD, Cortex” value (AChE [5]; [10]) was 86.1 ± 5.6 % of controls and the “AChE activity in % of controls ± SD, Heart” value (AChE [5]; [10]) was 109.0 ± 9.3 % of controls. The “AChE activity in % of controls ± SD, Hippocampus” value (AChE [5]; [10]) was 86.7 ± 5.9 % of controls, the “AChE activity in % of controls ± SD, Pons/Medulla” value (AChE [5]; [10]) was 91.5 ± 3.8 % of controls and the “AChE activity in % of controls ± SD, Striatum” value (AChE [5]; [10]) was 89.7 ± 8.4 % of controls. For the same molecule, the “AChE activity in % of controls ± SD, Blood” value (AChE [5]; [11]) was 41.9 ± 13.1 % of controls, the “AChE activity in % of controls ± SD, Heart” value (AChE [5]; [11]) was 52.0 ± 13.1 % of controls and the “AChE activity in % of controls ± SD, Hippocampus” value (AChE [5]; [11]) was 45.7 ± 15.0 % of controls. The “AChE activity in % of controls ± SD, Pons/Medulla” value (AChE [5]; [11]) was 53.6 ± 13.3 % of controls, the “AChE activity in % of controls ± SD, Cortex” value (AChE [5]; [12]) was 73.8 ± 5.7 % of controls and the “AChE activity in % of controls ± SD, Heart” value (AChE [5]; [12]) was 63.9 ± 12.5 % of controls. For the same molecule, the “AChE activity in % of controls ± SD, Hippocampus” value (AChE [5]; [12]) was 80.4 ± 8.8 % of controls, the “AChE activity in % of controls ± SD, Pons/Medulla” value (AChE [5]; [12]) was 85.3 ± 4.2 % of controls and the “AChE activity in % of controls ± SD, Striatum” value (AChE [5]; [12]) was 81.0 ± 8.2 % of controls. For the same molecule, the “time of maximal AChE inhibition” value (AChE [5]; oral) was 15 min, the remaining activity at 10 µmol/kg (AChE [5]; read-out: AChE activity in % of controls ± SD, Blood, Oral 10 μmol/kg, 0.5 hours after treatment) was 34 ± 2% and the remaining activity at 10 µmol/kg (AChE [5]; read-out: AChE activity in % of controls ± SD, Blood, Oral 10 μmol/kg, 6 hours after treatment) was 77.2 ± 14.7%. For the same molecule, the remaining activity at 10 µmol/kg (AChE [5]; read-out: AChE activity in % of controls ± SD, Blood, Oral 10 μmol/kg, 24 hours after treatment) was 97.2 ± 13.8%, the remaining activity at 10 µmol/kg (AChE [5]; read-out: AChE activity in % of controls ± SD, Cortex, Oral 10 μmol/kg, 0.5 hours after treatment) was 21 ± 3.5% and the remaining activity at 10 µmol/kg (AChE [5]; read-out: AChE activity in % of controls ± SD, Cortex, Oral 10 μmol/kg, 6 hours after treatment) was 65.3 ± 21.3%. The remaining activity at 10 µmol/kg (AChE [5]; read-out: AChE activity in % of controls ± SD, Cortex, Oral 10 μmol/kg, 24 hours after treatment) was 99.2 ± 8.9%, the remaining activity at 10 µmol/kg (AChE [5]; read-out: AChE activity in % of controls ± SD, Heart, Oral 10 μmol/kg, 0.5 hours after treatment) was 71.2 ± 11.2% and the remaining activity at 10 µmol/kg (AChE [5]; read-out: AChE activity in % of controls ± SD, Heart, Oral 10 μmol/kg, 6 hours after treatment) was 101 ± 7%. For the same molecule, the remaining activity at 10 µmol/kg (AChE [5]; read-out: AChE activity in % of controls ± SD, Heart, Oral 10 μmol/kg, 24 hours after treatment) was 94.2 ± 9.2%, the remaining activity at 10 µmol/kg (AChE [5]; read-out: AChE activity in % of controls ± SD, Hippocampus, Oral 10 μmol/kg, 0.5 hours after treatment) was 19.7 ± 3.8% and the remaining activity at 10 µmol/kg (AChE [5]; read-out: AChE activity in % of controls ± SD, Hippocampus, Oral 10 μmol/kg, 6 hours after treatment) was 62 ± 15.4%. It also gave a remaining activity at 10 µmol/kg (AChE [5]; read-out: AChE activity in % of controls ± SD, Hippocampus, Oral 10 μmol/kg, 24 hours after treatment) of 97.2 ± 7.1%, a remaining activity at 10 µmol/kg (AChE [5]; read-out: AChE activity in % of controls ± SD, Pons/Medulla, Oral 10 μmol/kg, 0.5 hours after treatment) of 26.6 ± 4% and a remaining activity at 10 µmol/kg (AChE [5]; read-out: AChE activity in % of controls ± SD, Pons/Medulla, Oral 10 μmol/kg, 6 hours after treatment) of 80.3 ± 9.2%. It also gave a remaining activity at 10 µmol/kg (AChE [5]; read-out: AChE activity in % of controls ± SD, Pons/Medulla, Oral 10 μmol/kg, 24 hours after treatment) of 104 ± 6.8%, a remaining activity at 10 µmol/kg (AChE [5]; read-out: AChE activity in % of controls ± SD, Striatum, Oral 10 μmol/kg, 0.5 hours after treatment) of 32.9 ± 10.7% and a remaining activity at 10 µmol/kg (AChE [5]; read-out: AChE activity in % of controls ± SD, Striatum, Oral 10 μmol/kg, 6 hours after treatment) of 87.5 ± 8.8%. The remaining activity at 10 µmol/kg (AChE [5]; read-out: AChE activity in % of controls ± SD, Striatum, Oral 10 μmol/kg, 24 hours after treatment) was 96.7 ± 3.3%, the “time of maximal AChE inhibition” value (AChE [5]; subcutaneous) was 30 min and the “AChE inhibition after transdermal administration” value (AChE [5]; transdermal) was “long-lasting, dose-dependent inhibition of AChE activity”. For the same molecule, the “time of maximal AChE inhibition” value (AChE [5]; transdermal) was > 120 min, the “AChE activity” value (AChE [5]; twenty four hours after oral application) was “has no effect on the enzyme” and the “AChE activity” value (AChE [5]; twenty four hours after s.c. application) was “only the enzyme in the heart is significantly inhibited”. The “AChE activity” value (AChE [5]; twenty four hours after transdermal application) was “still inhibited in central and peripheral regions”.
